Source: publication PMC8279981, “A first-in-human, phase 1 study of the NEDD8 activating enzyme E1 inhibitor TAS4464 in patients with advanced solid tumors” (Investigational New Drugs, 2021)

How the values were obtained:
[1] = test system: advanced or metastatic solid tumors; experiment: Phase 1 study: clinical response (RECIST v1.1), PFS; assay type: in vivo, human
From the text: Secondary objectives included assessment of AEs, treatment-related AEs, objective response rate (ORR), disease control rate (DCR), progression-free survival (PFS), and PK, pharmacodynamic, and pharmacogenomic (PGx) parameters with TAS4464 administration. The National Cancer Institute Common Terminology Criteria for Adverse Events (NCI CTCAE) v4.03 [17] was used to assess the severity of AEs. The Medical Dictionary for Regulatory Activities (MedDRA) version 22.1 was used to classify AEs. RECIST v1.1 [16] was used to determine clinical response, and all computed tomography images were assessed by the physician at the study site after completion of the imaging procedure. The ORR was defined as the percentage of patients with the best overall response of complete response (CR) or partial response (PR). The DCR was the percentage of patients with a best overall response of CR, PR, stable disease (SD), or non-CR/non-progressive disease (PD). PFS was defined as the time from the date of enrollment until the date of investigator-assessed radiological disease progression or death due to any cause, whichever occurred first. The analysis populations included in the study are summarized in the Supplementary Appendix. DLTs were recorded by incidence and 95% confidence intervals (CI). Median PFS and 95% CIs were calculated using Kaplan–Meier methodology. Best overall response was tabulated, and the ORR and DCR with 95% CIs were calculated by dose level. PK parameters were evaluated using non-compartmental methods. For the pharmacodynamic parameter of cullin-NEDD8 in PBMC, summary statistics and a scatter plot of the percentage change from baseline were produced. Missing data were not imputed. […] SAS software v9.4 (SAS Institute Inc., Cary NC, USA) was used for all statistical processing.

[2] = test system: hematologic and solid tumor xenograft models; conditions: cited from earlier work
[3] = weekly dosing Level 1 (10 mg/m^2), n = 1
[4] = weekly dosing Level 2 (20 mg/m^2), n = 1
[5] = weekly dosing Level 3 (40 mg/m^2), n = 3
[6] = weekly dosing Level 4 (56 mg/m^2), n = 5
[7] = weekly dosing with lead-in Level 3 (20 → 40 mg/m^2), n = 3
[8] = weekly dosing with lead-in Level 4 (20 → 56 mg/m^2), n = 3
[9] = weekly dosing with lead-in Total, n = 6

In the case of `CCOc1cccc(F)c1C#Cc1cn([C@@H]2O[C@H](CNS(N)(=O)=O)[C@@H](O)[C@H]2O)c2ncnc(N)c12` [TAS4464], the “Disease control rate (CR + PR + SD + non-CR/non-PD)” value ([1]; Total, N = 16) is reported as 5 (31.3) n (%), the “Not evaluable (best overall response)” value ([1]; Total, N = 16) is reported as 1 (6.3) n (%) and the “PD (best overall response)” value ([1]; Total, N = 16) is reported as 10 (62.5) n (%). The “Response rate (CR + PR)” value ([1]; Total, N = 16) was 0 n (%), the “Disease control rate (CR + PR + SD + non-CR/non-PD)” value [1, 3] was 1 (100.0) n (%) and the “Not evaluable (best overall response)” value [1, 3] was 0 n (%). For the same compound, the “PD (best overall response)” value [1, 3] was 0 n (%), the “Response rate (CR + PR)” value [1, 3] was 0 n (%) and the “Disease control rate (CR + PR + SD + non-CR/non-PD)” value [1, 4] was 1 (100.0) n (%). The “Not evaluable (best overall response)” value [1, 4] was 0 n (%), the “PD (best overall response)” value [1, 4] was 0 n (%) and the “Response rate (CR + PR)” value [1, 4] was 0 n (%). For the same compound, the “Disease control rate (CR + PR + SD + non-CR/non-PD)” value [1, 5] was 1 (33.3) n (%), the “Not evaluable (best overall response)” value [1, 5] was 0 n (%) and the “PD (best overall response)” value [1, 5] was 2 (66.7) n (%). For the same compound, the “Response rate (CR + PR)” value [1, 5] was 0 n (%), the “Disease control rate (CR + PR + SD + non-CR/non-PD)” value [1, 6] was 2 (40.0) n (%) and the “Not evaluable (best overall response)” value [1, 6] was 0 n (%). The “PD (best overall response)” value [1, 6] was 3 (60.0) n (%), the “Response rate (CR + PR)” value [1, 6] was 0 n (%) and the “Disease control rate (CR + PR + SD + non-CR/non-PD)” value ([1]; weekly dosing Total, N = 10) was 5 (50.0) n (%). For the same compound, the “Not evaluable (best overall response)” value ([1]; weekly dosing Total, N = 10) was 0 n (%), the “PD (best overall response)” value ([1]; weekly dosing Total, N = 10) was 5 (50.0) n (%) and the “Response rate (CR + PR)” value ([1]; weekly dosing Total, N = 10) was 0 n (%). For the same compound, the best overall response ([1]; weekly dosing cohort) was “no patients showed a CR or PR”, the DCR ([1]; weekly dosing cohort, 10 patients, 95% CI 18.7–81.3) was 50.0% and the “median PFS” value ([1]; weekly dosing cohort, 95% CI 1.0–7.0) was 3.7 months. The “Disease control rate (CR + PR + SD + non-CR/non-PD)” value [1, 7] was 0 n (%), the “Not evaluable (best overall response)” value [1, 7] was 0 n (%) and the “PD (best overall response)” value [1, 7] was 3 (100.0) n (%). For the same compound, the “Response rate (CR + PR)” value [1, 7] was 0 n (%), the “Disease control rate (CR + PR + SD + non-CR/non-PD)” value [1, 8] was 0 n (%) and the “Not evaluable (best overall response)” value [1, 8] was 1 (33.3) n (%). For the same compound, the “PD (best overall response)” value [1, 8] was 2 (66.7) n (%), the “Response rate (CR + PR)” value [1, 8] was 0 n (%) and the “Disease control rate (CR + PR + SD + non-CR/non-PD)” value [1, 9] was 0 n (%). For the same compound, the “Not evaluable (best overall response)” value [1, 9] was 1 (16.7) n (%), the “PD (best overall response)” value [1, 9] was 5 (83.3) n (%) and the “Response rate (CR + PR)” value [1, 9] was 0 n (%). The best overall response ([1]; weekly dosing with lead-in period cohort) was “no patients showed CR, PR, or SD”, the “median PFS” value ([1]; weekly dosing with lead-in period cohort, 95% CI 0.5–2.9) was 1.5 months and the antitumor effects ([2]; several hematologic and solid tumor xenograft models) was “promising antitumor effects”. The weight loss ([2]; xenograft models) was “without notable weight loss”.
